The text below walks through data of a melting point compilation (Tetko et al.; mined from patent text by program, amines drawn as free bases though some values may be those of a salt).

For orientation: melting point means the temperature, or range, at which the solid turns liquid.

As for `CCOC(COC1CC2C3CCC4=CC(=O)CCC4(C)C3(F)C(O)CC2(C)C1(O)C(=O)CO)OCC` (stereo not given), the melting point was 208 to 210 °C.
Next, `FC(F)(F)C(F)(F)Cc1ccc(CBr)cc1`: 62 to 63 °C.
`Cc1nc(C(=O)NS(=O)(=O)c2c(C)csc2C)no1` came in with a melting point of 164 °C.
The result for `FC(F)(F)c1cccc(N2CCC(N=Cc3ccc[nH]3)=N2)c1` reads 144 to 145 °C.
Next, `COc1cc(OCCN2CCOCC2)c(C=CC(=O)c2ccc(S(N)(=O)=O)cc2)cc1-c1cccs1`: 186 to 188 °C; `CCCCS(=O)(=O)NCc1ccc(C(=O)CN2CCN(c3ccncc3)CC2)cc1`: 101 to 103 °C; `N#CC(C(N)=O)=C1Cc2ccccc2SN1`: 260 to 267 °C.
For the compound `CCC(CC)c1nn(-c2ccc(C(F)(F)F)cn2)cc1CCCOc1c(CC(=O)O)cccc1OC`, the melting point lay within 100 to 101 °C.
`Clc1ccc(NNc2ccc(Cl)cc2)cc1` showed a melting point of 120 to 121 °C.
`COc1ccc(C(=C/C=C/C(=O)NCCCc2ccncc2)c2ccc(OC)cc2)cc1` registered a melting point of 90 to 92 °C.
Turning to `Nc1ccc(-c2cc3c(Nc4ccc(Cl)cc4F)ncnc3o2)cc1`, the melting point lay within 229 to 232 °C.
The result for `O=[N+]([O-])c1ccc(C2OCc3ccc(CO)cc3CO2)cc1` (stereo not given) reads 146 °C; that for `O=C(O)c1ccc(=O)n(NC(=O)c2cccnc2)c1`, > 250 °C.
The result for `C#CC(C)(C)OC(=O)Nc1ccc(-c2ncn(-c3ccc(C(F)(F)F)cc3)n2)cc1` reads 187 to 189 °C; that for `COc1ccncc1NC(=O)c1c[nH]c2c1C(=O)CCC2`, 209 to 210 °C.
Next, `O[C@H](COc1cccc2[nH]ccc12)CN1CCC(c2c[nH]c3cc(C(F)(F)F)ccc23)CC1`: 100 to 105 °C; `CC(O)CCSC(=S)Nc1ccc(Cl)cn1` (stereo not given): 120 °C.
`Cc1cc(F)c(-n2ccc(O)n2)cc1SCC(F)(F)F` yielded a melting point of 166 to 168 °C.
Take `CCCCCCCCCCCCCCCC(=O)OCC(COCc1ccccc1)OC(=O)CCCCCCCCCCCCCCC` (stereo not given): the melting point fell in the range of 40 to 42 °C.
Next, `Cc1cc2c(-c3cccc(C(=O)O)c3)c(CC(=O)Nc3ccc(Cl)cc3C(F)(F)F)c(=O)oc2cc1Cl`: 270 to 272 °C; `O=C(O)C(Cc1cccnc1)C(=O)O`: 128 to 129 °C.
For the compound `Nc1ccc2nc(O)c(O)nc2c1N`, the melting point was > 300 °C.
The result for `CCCCCCCCCCCCc1c(C)[nH]c(C(=O)OCC)c1C` reads 65 to 67 °C.
For the compound `Cn1cc(C(=O)NCc2ccc(Cl)cc2)c(=O)c2cc(CN3CCOC[C@@H]3[C@H](O)c3ccccc3)sc21`, the melting point lay within 129 to 134 °C.
For the compound `CSc1nc(-c2ccncc2)n(-c2ccc(C)cc2)c(=O)c1C#N`, the melting point was > 250 °C.
With `CC(=O)CC(=O)Nc1cccc(NC(C)=O)c1`, the melting point was determined as 107 °C.
`CCCn1nc(SCCCCCCC(=O)O)c(C(=O)O)c1Cc1cc2c(cc1Cl)OCO2` yielded a melting point of 180 °C.
The result for `O=C(O)c1ccccc1Oc1ccc(C(F)(F)F)cc1NS(=O)(=O)c1ccc(Br)cc1` reads 167 to 168 °C.
As for `CC(CO)NC(=O)C(NC(=O)OCc1ccccc1)C(Cc1ccccc1)C(=O)O` (stereo not given), the melting point fell in the range of 110 to 111 °C.
Next, `CC(O)c1ccc(-c2ccc([N+](=O)[O-])cc2)o1` (stereo not given): 69.5 to 70.5 °C; `FC(F)(F)c1cccc(Nc2ccccc2-c2n[nH]c(=S)o2)c1`: 211 to 213 °C; `CCn1c(=O)c2[nH]c(/C=C/c3cc(F)cc(F)c3)nc2n(CC)c1=O`: > 280 °C.
`O=C1C2CCCCC2C(=O)N1c1c(F)cc(F)cc1F` (stereo not given): the melting point fell in the range of 129 to 131 °C.
Next, `O=C1c2ccccc2C(=O)N1Cc1ccc(/C=C/C(c2cc(Cl)cc(Cl)c2)C(F)(F)F)cc1Cl` (stereo not given): 141 to 143 °C; `O=C(CC1CCCCCC1=O)c1ccc([N+](=O)[O-])cc1` (stereo not given): 79 to 84 °C.
